According to patent publication US20260078103A1, “ISOQUINOLONES AS PI3K INHIBITORS” (OnKure, Inc., priority 2022, published 2026):
Like-named read-outs stand apart in the source and are kept apart here.

How the values were obtained:
Assay type in all cases: cell-based
[1] = tested on: T47D cells expressing mutant PI3Ka (H1047R); assay: In vitro cell proliferation, T47D cells (CellTiter-Glo); conditions: inhibition of proliferation, read-out: Avg T-47D EC50
Method in brief: (§1)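 T47D (PI3Kα H1047R; RPMI, 10% FBS, insulin 0.2 units/mL) or SKBR3 (WT PI3Kα; McCoys 5a, 10% FBS) cells seeded at 1,500 cells/well on 10-point compound dilutions, grown 72 h at 37 °C. CellTiter-Glo luminescence; inhibition normalised to 0.1% DMSO and 10 uM alpelisib, EC50 from four-parameter fit.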

[2] = tested on: SKBR3 cells express WT PI3Ka; assay: In vitro cell proliferation, SKBR3 cells (CellTiter-Glo); conditions: inhibition of proliferation
Method in brief: as §1

[3] = tested on: phosphorylation of AKT (pAKT) in T47D cells expressing mutant PI3Ka (H1047R); assay: In vitro cell pAKT (Ser473) HTRF, T47D cells; conditions: cellular pAKT, T47D cells, mutant PI3Ka (H1047R), 6 hours, read-out: Avg T-47D IC50
Method in brief: (§2)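 Cells seeded on plates pre-stamped with 10-point compound dilutions, then grown 6 h at 37 °C (T47D in RPMI/10% FBS/insulin; SKBR3 in McCoy's 5a/10% FBS). Lysates read for pAKT Ser473 by HTRF after overnight antibody incubation. Inhibition normalised to 0.1% DMSO and 10 uM alpelisib; IC50 by four-parameter fit.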

[4] = tested on: phosphorylation of AKT (pAKT) in SKBR3 cells express WT PI3Ka; assay: In vitro cell pAKT (Ser473) HTRF, SKBR3 cells; conditions: cellular pAKT
Method in brief: as §2

SMILES | EC50 ([1]; 72 hours) [µM] | EC50 ([2]; 72 hours) [µM] | IC50 [3] [µM] | IC50 ([4]; 6 hours) [µM] | EC50 ([1]; Homo sapiens, T47D, 72 h) [µM] | EC50 ([2]; Homo sapiens, SK-BR-3, 72 h) [µM] | IC50 ([3]; Homo sapiens, T47D, 6 h) [µM] | IC50 ([4]; Homo sapiens, SK-BR-3, 6 h) [µM]
Cc1ccc(C2CN(c3cc4c([C@@H](C)Nc5cccc(F)c5C(=O)O)cc(F)cc4c(=O)n3C)C2)cn1 [Example 409] | 0.5 to 2 | > 15 | 0.5 to 2 | > 15 |  |  |  | 
Cc1cc([C@@H](C)Nc2cccc(F)c2C(=O)O)c2cc(N3CCN(C)[C@H](C(F)(F)F)C3)n(C)c(=O)c2c1 [Example 411] |  |  |  |  | 0.001 to 0.5 | > 15 | 0.001 to 0.5 | > 15
C[C@@H](Nc1cccc(F)c1C(=O)O)c1cc(F)cc2c(=O)n(C)c(N3CCC(F)(F)C3)cc12 [Example 414] | 0.001 to 0.5 | > 15 | 0.001 to 0.5 | > 15 |  |  |  | 
C[C@@H](Nc1cccc(F)c1C(=O)O)c1cc(F)cc2c(=O)n(C)c(N3CC[C@@H](C(F)(F)F)C3)cc12 [Example 415] |  |  |  |  | 0.5 to 2 | > 15 | 0.001 to 0.5 | > 15
C[C@@H](Nc1cccc(F)c1C(=O)O)c1cc(F)cc2c(=O)n(C)c(N3CC[C@H](C(F)(F)F)C3)cc12 [Example 416] |  |  |  |  | 0.5 to 2 | > 15 | 0.5 to 2 | > 15
Cc1cc([C@@H](C)Nc2ccccc2C(=O)O)c2cc(N3CCn4c(C)nnc4C3)n(C)c(=O)c2c1 [Example 418] |  |  |  |  | > 15 | > 15 | > 15 | > 15
Cc1cc([C@@H](C)Nc2ccccc2C(=O)O)c2cc(N3CCn4ncnc4C3)n(C)c(=O)c2c1 [Example 419] |  |  |  |  | 0.5 to 2 | > 15 | 0.5 to 2 | > 15
Cc1cc([C@@H](C)Nc2ccccc2C(=O)O)c2cc(N3CCn4cc(C(F)(F)F)nc4C3)n(C)c(=O)c2c1 [Example 432] |  |  |  |  | 0.5 to 2 | > 15 | 0.001 to 0.5 | > 15
Cc1cc([C@@H](C)Nc2ccccc2C(=O)O)c2cc(N3CCn4cc(C)nc4C3)n(C)c(=O)c2c1 [Example 434] |  |  |  |  | 0.001 to 0.5 | > 15 | 0.001 to 0.5 | > 15
Cc1cc([C@@H](C)Nc2ccccc2C(=O)O)c2cc(N3CCn4c(nnc4C(F)(F)F)C3)n(C)c(=O)c2c1 [Example 435] | 2 to 15 | > 15 | 2 to 15 | > 15 |  |  |  | 
Cc1cc([C@@H](C)Nc2ccccc2C(=O)O)c2cc(N3CCn4nncc4C3)n(C)c(=O)c2c1 [Example 436] |  |  |  |  | 2 to 15 | > 15 | 2 to 15 | > 15

Further lines, results first:

EC50 ([1]; 72 hours) [µM] | EC50 ([2]; 72 hours) [µM] | IC50 [3] [µM] | IC50 ([4]; 6 hours) [µM] | EC50 ([1]; Homo sapiens, T47D, 72 h) [µM] | EC50 ([2]; Homo sapiens, SK-BR-3, 72 h) [µM] | IC50 ([3]; Homo sapiens, T47D, 6 h) [µM] | IC50 ([4]; Homo sapiens, SK-BR-3, 6 h) [µM] | SMILES
0.001 to 0.5 | > 15 | 0.001 to 0.5 | > 15 |  |  |  |  | CC(Nc1cccc(F)c1C(=O)O)c1cc(F)cc2c(=O)n(C)c(-c3ccc(OC4CC(F)C4)nc3)cc12 (centres unmarked) [Example 407]
 |  |  |  | 0.001 to 0.5 | > 15 | 0.001 to 0.5 | > 15 | Cc1cc([C@@H](C)Nc2cccc(F)c2C(=O)O)c2cc(N3CCN(C)[C@@H](C(F)(F)F)C3)n(C)c(=O)c2c1 [Example 410]
 |  |  |  | 2 to 15 | > 15 | 0.5 to 2 | > 15 | C[C@@H](Nc1cccc(F)c1C(=O)O)c1cc(F)cc2c(=O)n(C)c(N3CC(F)(F)C3)cc12 [Example 412]
2 to 15 | > 15 | 2 to 15 | > 15 |  |  |  |  | C[C@@H](Nc1cccc(F)c1C(=O)O)c1cc(F)cc2c(=O)n(C)c(N3CC(C(F)(F)F)C3)cc12 [Example 413]
 |  |  |  | 0.001 to 0.5 | > 15 | 0.001 to 0.5 | > 15 | Cc1cnc(N2CCN(c3cc4c([C@@H](C)Nc5cccc(F)c5C(=O)O)cc(F)cc4c(=O)n3C)CC2)s1 [Example 417]
 |  |  |  | 0.001 to 0.5 | > 15 | 0.001 to 0.5 | > 15 | Cc1cc([C@@H](C)Nc2ccccc2C(=O)O)c2cc(-c3cnc(CC(F)(F)F)cn3)n(C)c(=O)c2c1 [Example 422]
 |  |  |  | 0.001 to 0.5 | > 15 | 0.001 to 0.5 | 2 to 15 | C[C@@H](Nc1cccc(F)c1C(=O)O)c1cc(F)cc2c(=O)n(C)c(N3CCN(c4cnn(C(C)(C)C#N)c4)CC3)cc12 [Example 424]
 |  |  |  | 0.001 to 0.5 | > 15 | 0.001 to 0.5 | > 15 | C[C@@H](Nc1cccc(F)c1C(=O)O)c1cc(F)cc2c(=O)n(C)c(N3CCN(c4nccs4)CC3)cc12 [Example 429]
0.5 to 2 | > 15 | 0.001 to 0.5 | > 15 |  |  |  |  | Cc1cc([C@@H](C)Nc2ccccc2C(=O)O)c2cc(N3CCn4c(cnc4C(F)(F)F)C3)n(C)c(=O)c2c1 [Example 433]
